Structures are written as SMILES.

The nature of the data set: Photocatalytic singlet oxygen generation (ABDA probe). It is filed as physicochemical. Conditions: H2O:DMSO (1:1), blue light 460 nm, rose bengal as reference. An excerpt:
Singlet oxygen is thought to be the main cytotoxic species in type II PDT processes. Therefore, we determined the ability of Ir-Me and Ru-Me to generate ^1O2 under photocatalytic conditions, as illustrative examples of our PSs. As shown in Figures 6 and S51, we monitored by means of UV–vis spectroscopy the oxidation of 9,10-anthracenediyl bis(methylene)dimalonic acid (ABDA, 8x 10^–5 M) in the presence of atmospheric oxygen, using Ir-Me (10^–5 M) as the PS and H2O:DMSO (1:1) as the solvent system under blue light exposure (λir = 460 nm). […] Moreover, the singlet oxygen quantum yield values (ΦΔ) of Ir-Me and Ru-Me were determined using rose bengal (ΦΔ = 0.75) as the reference. […]
an integrating sphere. For the determination of the luminescence lifetime, the fluorescence decay was measured on a FLS980 spectrofluorometer equipped with a TSCPC laser (Ir(III) complexes: λ ex = 405 nm; Ru(II) complexes: λ ex = 450 nm) and a REDPMT detector. The F980 spectrometer operating software was used to collect and process luminescence lifetime data.
Photostability of Ir(III) and Ru(II) complexes. The photostability of Ir(III) or Ru(II) complexes was monitored by 1H RMN. […]
Singlet oxygen generation. The capacity of Ir-Me and Ru-Me to generate singlet oxygen ( 1O2) was determined by an indirect method using 9,10-anthracenediyl-bis(methylene) dimalonic acid (ABDA) as a probe. […]

Regarding `COC(=O)/C=C/c1ccc(-c2nccc3c4ccccc4n(C)c23)nc1.[Cl-].[Ir+3].[c-]1ccccc1-c1ccccn1.[c-]1ccccc1-c1ccccn1` [Ir-Me], the “singlet oxygen quantum yield (ΦΔ)” value was found to be 4%.
